“And” between values parts separate entries of the source, which are not always exact repeats. Equal entries are not always repeated. Inconclusive results and toxic doses are left out. How the source made its calls: active means survival T/C of 150% or more; inactive means T/C below 125% in these data.
Test system: P388 leukemia ip, CD2F1 mice, survival T/C
Assay: NCI In Vivo Anticancer Drug Screen. Data for tumor model P388 Leukemia (intraperitoneal) in CD2F1 (CDF1) mice
Conditions: endpoint: median survival time, higher = longer survival
In short: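 Mice carrying the transplanted tumor received test compound or vehicle. Survival was recorded in each group, and the value is the treated-group measurement divided by that of the vehicle-treated control group.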

[1] = dose: 60.0 mg/kg/injection, schedule: Q01DX005 (ip), vehicle: Klucel (hydroxypropylcellulose) (HPC)
[2] = dose: 120.0 mg/kg/injection, schedule: Q01DX005 (ip), vehicle: Klucel (hydroxypropylcellulose) (HPC)
[3] = dose: 240.0 mg/kg/injection, schedule: Q01DX005 (ip), vehicle: Klucel (hydroxypropylcellulose) (HPC)
[4] = dose: 50.0 mg/kg/injection, schedule: Q01DX005 (ip), vehicle: saline with Tween-80
[5] = dose: 100.0 mg/kg/injection, schedule: Q01DX005 (ip), vehicle: saline with Tween-80
[6] = dose: 200.0 mg/kg/injection, schedule: Q01DX005 (ip), vehicle: saline with Tween-80
[7] = dose: 12.5 mg/kg/injection, schedule: Q01DX005 (ip), vehicle: saline with Tween-80
[8] = dose: 50.0 mg/kg/injection, schedule: Q01DX009 (ip), vehicle: saline
[9] = dose: 60.0 mg/kg/injection, schedule: Q01DX005 (ip), vehicle: saline with Tween-80
[10] = dose: 120.0 mg/kg/injection, schedule: Q01DX005 (ip), vehicle: saline with Tween-80
[11] = dose: 240.0 mg/kg/injection, schedule: Q01DX005 (ip), vehicle: saline with Tween-80
[12] = dose: 100.0 mg/kg/injection, schedule: Q01DX009 (ip), vehicle: saline
[13] = dose: 50.0 mg/kg/injection, schedule: Q01DX009 (ip), vehicle: Klucel (hydroxypropylcellulose) (HPC)
[14] = dose: 100.0 mg/kg/injection, schedule: Q01DX009 (ip), vehicle: Klucel (hydroxypropylcellulose) (HPC)
[15] = dose: 200.0 mg/kg/injection, schedule: Q01DX009 (ip), vehicle: Klucel (hydroxypropylcellulose) (HPC)
[16] = dose: 25.0 mg/kg/injection, schedule: Q01DX009 (ip), vehicle: saline with Tween-80
[17] = dose: 50.0 mg/kg/injection, schedule: Q01DX009 (ip), vehicle: saline with Tween-80
[18] = dose: 50.0 mg/kg/injection, schedule: Q01DX005 (ip), vehicle: saline

Measured: T/C

CCOC(=O)c1ccc(NC(=O)Nc2cccc3c(O)cccc23)cc1
inactive: [1] 89 % of control | [2] 96 % of control | [3] 88 % of control

COc1ccc2[nH]cc(C#N)c(=O)c2c1
inactive: [4] 101 % of control | [5] 90 % of control | [6] 92 % of control

NNC(=O)CCSC(=O)Nc1ccccc1
inactive: [7] 110 % of control | dose: 25.0 mg/kg/injection, schedule: Q01DX005 (ip), vehicle: saline with Tween-80 106 % of control | [4] 107 % of control and 112 % of control | [5] 114 % of control

O=S(=O)(Nc1ccc(O)c(Cl)c1)c1ccccc1
inactive: dose: 100.0 mg/kg/injection, schedule: Q04DX003 (ip), vehicle: saline with Tween-80 100 % of control | dose: 200.0 mg/kg/injection, schedule: Q04DX003 (ip), vehicle: saline with Tween-80 100 % of control | dose: 400.0 mg/kg/injection, schedule: Q04DX003 (ip), vehicle: saline with Tween-80 100 % of control

C=C(CSc1ccc(C(=O)O)c([N+](=O)[O-])c1)c1ccc([N+](=O)[O-])cc1
inactive: dose: 12.5 mg/kg/injection, schedule: Q01DX009 (ip), vehicle: saline 105 % of control | dose: 25.0 mg/kg/injection, schedule: Q01DX009 (ip), vehicle: saline 106 % of control | [8] 99 % of control and 90 % of control

CC(=O)NC(C)c1ccc2ccccc2c1 (centres undefined)
inactive: [9] 97 % of control | [10] 96 % of control | [11] 97 % of control

O=C1CC(c2ccccc2)C(=O)N1CN1CCOCC1 (centres undefined)
inactive: dose: 50.0 mg/kg/injection, schedule: Q01DX005 (ip), vehicle: Klucel (hydroxypropylcellulose) (HPC) 110 % of control | dose: 100.0 mg/kg/injection, schedule: Q01DX005 (ip), vehicle: Klucel (hydroxypropylcellulose) (HPC) 97 % of control | dose: 200.0 mg/kg/injection, schedule: Q01DX005 (ip), vehicle: Klucel (hydroxypropylcellulose) (HPC) 97 % of control

CC(=O)Oc1c(C)c(C)c(OC(C)=O)c(OC(C)=O)c1C
inactive: dose: 100.0 mg/kg/injection, schedule: Q04DX002 (ip), vehicle: Klucel (hydroxypropylcellulose) (HPC) 93 % of control | dose: 200.0 mg/kg/injection, schedule: Q04DX002 (ip), vehicle: Klucel (hydroxypropylcellulose) (HPC) 96 % of control | dose: 400.0 mg/kg/injection, schedule: Q04DX002 (ip), vehicle: Klucel (hydroxypropylcellulose) (HPC) 90 % of control

CN(C)Cc1ccc2ccccc2c1O
inactive: [8] 104 % of control | [12] 109 % of control

C/C=C/C=C/C(=O)Nc1ncc([N+](=O)[O-])s1
inactive: [13] 103 % of control | [14] 104 % of control | [15] 109 % of control

NC1=C(Cl)C(=O)C(N)=C(Cl)C1=O
inactive: [16] 113 % of control | [13] 100 % of control | [17] 100 % of control | [14] 103 % of control | dose: 100.0 mg/kg/injection, schedule: Q01DX009 (ip), vehicle: saline with Tween-80 100 % of control | [15] 105 % of control | dose: 200.0 mg/kg/injection, schedule: Q01DX009 (ip), vehicle: saline with Tween-80 94 % of control | dose: 400.0 mg/kg/injection, schedule: Q01DX009 (ip), vehicle: Klucel (hydroxypropylcellulose) (HPC) 99 % of control

CC[As](=O)(O)CC(C)C
inactive: dose: 25.0 mg/kg/injection, schedule: Q04DX002 (ip), vehicle: saline 100 % of control | dose: 50.0 mg/kg/injection, schedule: Q04DX002 (ip), vehicle: saline 100 % of control

Nc1ncc(CCCOc2ccccc2)c(=O)[nH]1
inactive: dose: 100.0 mg/kg/injection, schedule: Q01DX001 (ip), vehicle: saline with Tween-80 90 % of control | dose: 200.0 mg/kg/injection, schedule: Q01DX001 (ip), vehicle: saline with Tween-80 90 % of control | dose: 400.0 mg/kg/injection, schedule: Q01DX001 (ip), vehicle: saline with Tween-80 90 % of control

Cn1c(-c2ccccc2)c2c(=O)oc3ccccc3c2c1-c1ccccc1
inactive: dose: 25.0 mg/kg/injection, schedule: Q04DX003 (ip), vehicle: Klucel (hydroxypropylcellulose) (HPC) 97 % of control | dose: 50.0 mg/kg/injection, schedule: Q04DX003 (ip), vehicle: Klucel (hydroxypropylcellulose) (HPC) 100 % of control | dose: 100.0 mg/kg/injection, schedule: Q04DX003 (ip), vehicle: Klucel (hydroxypropylcellulose) (HPC) 88 % of control and 94 % of control

COC(=O)c1cc(C#N)n2ccc3ccccc3c12
inactive: [13] 105 % of control | [14] 104 % of control | [15] 94 % of control

O=C1C2C3C=CC(O3)C2C(=O)N1CCN1CCCCC1 (centres undefined)
inactive: dose: 50.0 mg/kg/injection, schedule: Q01DX005 (ip), vehicle: other 97 % of control | dose: 100.0 mg/kg/injection, schedule: Q01DX005 (ip), vehicle: other 91 % of control

O=C(CCCN1CCC(C(=O)c2ccc(F)cc2)CC1)c1ccc(F)cc1
inactive: dose: 1.56 mg/kg/injection, schedule: Q01DX009 (ip), vehicle: saline 92 % of control | dose: 3.13 mg/kg/injection, schedule: Q01DX009 (ip), vehicle: saline 93 % of control | dose: 6.25 mg/kg/injection, schedule: Q01DX009 (ip), vehicle: saline with Tween-80 100 % of control | dose: 6.25 mg/kg/injection, schedule: Q01DX009 (ip), vehicle: saline 104 % of control | dose: 12.5 mg/kg/injection, schedule: Q01DX009 (ip), vehicle: saline with Tween-80 100 % of control | [16] 110 % of control | [17] 118 % of control

NCC(c1ccccc1)C1CCCCC1 (centres undefined)
inactive: dose: 12.5 mg/kg/injection, schedule: Q01DX005 (ip), vehicle: saline 103 % of control | dose: 25.0 mg/kg/injection, schedule: Q01DX005 (ip), vehicle: saline 94 % of control | [18] 100 % of control and 95 % of control

CN1c2ccccc2Sc2c1n[nH]c2-c1ccccc1
inactive: [1] 104 % of control | [2] 111 % of control | [3] 119 % of control

N#Cc1c(C(=O)NN)c2c(-c3ccc4ccccc4c3)n[nH]c(=O)c2[nH]c1=O
inactive: [4] 91 % of control | [5] 95 % of control | [6] 86 % of control

N=c1c2ccccc2cc2c3ccccc3ccn12
inactive: [9] 115 % of control | [10] 99 % of control | [11] 108 % of control

COc1ccc2[se]c(C(=O)O)cc2c1
inactive: [8] 91 % of control | [12] 91 % of control

CN(C)CC/C=C1/c2ccccc2Sc2ccc(Cl)cc21
inactive: dose: 6.25 mg/kg/injection, schedule: Q01DX005 (ip), vehicle: saline with Tween-80 104 % of control | [7] 111 % of control

Clc1ccc2c(cnc3ccccc32)n1
inactive: dose: 12.5 mg/kg/injection, schedule: Q04DX002 (ip), vehicle: saline with Tween-80 102 % of control | dose: 25.0 mg/kg/injection, schedule: Q04DX002 (ip), vehicle: saline with Tween-80 102 % of control | dose: 50.0 mg/kg/injection, schedule: Q04DX002 (ip), vehicle: saline with Tween-80 101 % of control

Cc1ccc(S(=O)(=O)OC2CCN(C)CC2)cc1
inactive: dose: 25.0 mg/kg/injection, schedule: Q04DX003 (ip), vehicle: saline 113 % of control | dose: 50.0 mg/kg/injection, schedule: Q04DX003 (ip), vehicle: saline 102 % of control | dose: 100.0 mg/kg/injection, schedule: Q04DX003 (ip), vehicle: saline 99 % of control | dose: 200.0 mg/kg/injection, schedule: Q04DX003 (ip), vehicle: saline 104 % of control

O=CN(CCC(=O)O)c1ccccc1
inactive: [18] 106 % of control | dose: 100.0 mg/kg/injection, schedule: Q01DX005 (ip), vehicle: saline 113 % of control | dose: 200.0 mg/kg/injection, schedule: Q01DX005 (ip), vehicle: saline 107 % of control

Nc1cc(-c2ccc(Br)cc2)nn1-c1nc(-c2ccc(Br)cc2)cs1
inactive: dose: 25.0 mg/kg/injection, schedule: Q01DX009 (ip), vehicle: Klucel (hydroxypropylcellulose) (HPC) 87 % of control | [13] 86 % of control | [14] 87 % of control | [15] 89 % of control

CC(/C=N\Nc1ccc(C(=O)O)cc1)=N/NC(=O)CC#N
inactive: [8] 88 % of control | [12] 86 % of control | dose: 200.0 mg/kg/injection, schedule: Q01DX009 (ip), vehicle: saline 88 % of control

NS(=O)(=O)c1ccc(NC(=O)CCCCl)cc1
inactive: [13] 100 % of control | [14] 94 % of control | [15] 86 % of control
